From ChEMBL document CHEMBL1129192, “D-Phe-Pro-p-Amidinobenzylamine: A potent and highly selective thrombin inhibitor” (Bioorg Med Chem Lett, 1996)
Where a SMILES comes first, the peptide text is derived from it.

Assays:
[1] = Ratio of Thrombin Kass/plasmin Kass
[2] = Ratio of Thrombin Kass/Urokinase Kass
[3] = Ratio of Thrombin Kass/tissue plasminogen activator Kass
[4] = Ratio of Thrombin Kass/trypsin Kass

Selectivity [1] | Selectivity [2] | Selectivity [3] | Selectivity [4] | SMILES
390 | 13000 | 1800 | 5.1 | NC(N)=NCCC[C@@H](C=O)NC(=O)[C@@H]1CCCN1C(=O)[C@H](N)Cc1ccccc1
4600 | 31000 | 920 | 33 | NC(N)=NCCCCNC(=O)[C@@H]1CCCN1C(=O)[C@H](N)Cc1ccccc1 (HELM PEPTIDE1{[dF].P.[N=C(N)NCCCCN[*:1]]}$$$$V2.0)
26000 | 400000 | 170000 | 130 | N=C(N)c1ccc(CNC(=O)[C@@H]2CCCN2C(=O)[C@H](N)Cc2ccccc2)cc1
